# Experimental data: patent US20250223307A1, “MDM2/MDMX DOUBLE-TARGET INHIBITOR COMPOUND, PRODRUG, PHARMACEUTICAL COMPOSITION, AND PREPARATION METHOD THEREFOR AND USE THEREOF” (GLOBAL HEALTH DRUG DISCOVERY INSTITUTE, priority 2022, published 2025)
# pIC50: −log10 of the molar value.
# Experiments:
# [1] = test system: Blood cancer cells RS4; 11; assay: CellTiter Glo test: growth inhibition of cells; type: cell-based; settings: Homo sapiens, 11 cells, 72 h, cell viability
# Method: Test of Candidate Compounds on Growth Inhibition of Cells Determined by CellTiter Glo
# Blood cancer cells RS4; 11 were inoculated into the 96-well cell culture plate through Multidrop 3000 cells per well, with a volume of 100 μL. The final compound concentration ranged from 50 μM to 0.01 μM at 9 concentration gradients and the DMSO final concentration was 0.1%. The cells and compounds were co-incubated in a cell incubator at 37° C. for 72 h, a CellTiter-Glo Luminescent Cell Viability Assay reagent was added 100 μL/well, the cells and compound were uniformly mixed and incubated at room temperature for 10 min, and Envision reading was performed. A sample treated with 50 μM of a positive compound was taken as a positive control and a sample treated with 100 nL of DMSO was taken as a negative control.
# MDM2 = MDM2 (Homo sapiens, UniProt Q00987); assay: HTRF test: inhibition of MDM2-p53 protein binding
# MDMX = molecular target: T1, MDMX (Homo sapiens, UniProt O15151); assay: HTRF test: inhibition of MDMX-p53 protein binding
# T1 sequence (O15151 2-134): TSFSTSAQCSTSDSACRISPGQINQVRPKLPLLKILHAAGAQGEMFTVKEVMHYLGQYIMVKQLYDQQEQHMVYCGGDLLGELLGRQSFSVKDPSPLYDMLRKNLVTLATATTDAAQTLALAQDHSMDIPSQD
# Sequence of MDM2 (Q00987 2-138): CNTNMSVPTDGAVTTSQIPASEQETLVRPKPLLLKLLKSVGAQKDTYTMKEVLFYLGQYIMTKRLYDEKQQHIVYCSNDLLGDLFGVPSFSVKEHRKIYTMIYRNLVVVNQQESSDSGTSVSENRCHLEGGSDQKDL
Compound,pIC50 [1],pIC50 (MDM2),pIC50 (MDMX)
"O=C1N/C(=C\c2c[nH]c3cc(Cl)ccc23)C(=O)N1Cc1ccc(F)c(F)c1 [Compound 1, (Z)-5-((6-chloro-1H-indol-3-yl)methylene)-3-(3,4-difluorobenzyl)imidazolidine-2,4-dione]",5.00 to 6.00,7.00 to 8.00,7.00 to 8.00
"O=C1N/C(=C\c2c[nH]c3cc(Cl)ccc23)C(=O)N1Cc1ccc(Cl)cc1 [Compound 2, (Z)-5-((6-chloro-1H-indol-3-yl)methylene)-3-(4-chlorobenzyl)imidazolidine-2,4-dione]",≥ 6.00,7.00 to 8.00,7.00 to 8.00
"O=C1N/C(=C\c2c[nH]c3cc(Cl)ccc23)C(=O)N1Cc1ccc(F)cc1 [Compound 3, (Z)-5-((6-chloro-1H-indol-3-yl)methylene)-3-(4-fluorobenzyl)imidazolidine-2,4-dione]",≥ 6.00,7.00 to 8.00,7.00 to 8.00
"N#Cc1ccc(CN2C(=O)N/C(=C\c3c[nH]c4cc(Cl)ccc34)C2=O)cc1 [Compound 4, (Z)-4-((4-((6-chloro-1H-indol-3-yl)methylene)-2,5-dioxoimidazolidin-1-yl)methyl)benzonitrile]",≥ 6.00,7.00 to 8.00,7.00 to 8.00
"O=C1N/C(=C\c2c[nH]c3cc(Br)ccc23)C(=O)N1Cc1ccc(Cl)cc1 [Compound 5, (Z)-5-((6-bromo-1H-indol-3-yl)methylene)-3-(4-chlorobenzyl)imidazolidine-2,4-dione]",5.00 to 6.00,7.00 to 8.00,7.00 to 8.00
"O=C1N/C(=C\c2c[nH]c3c(OCF)c(Cl)ccc23)C(=O)N1Cc1ccc(F)c(F)c1 [Compound 6, (Z)-5-((6-chloro-7-(fluoromethoxyl)-1H-indol-3-yl)methylene)-3-(3,4-difluorobenzyl)imidazolidine-2,4-dione]",–,7.00 to 8.00,7.00 to 8.00
"O=C1N/C(=C\c2c[nH]c3c(Cl)c(Cl)ccc23)C(=O)N1Cc1ccc(F)c(F)c1 [Compound 7, (Z)-5-((6,7-dichloro-1H-indol-3-yl)methylene)-3-(3,4-difluorobenzyl)imidazolidine-2,4-dione]",–,7.00 to 8.00,7.00 to 8.00
"COc1c(Cl)ccc2c(/C=C3\NC(=O)N(Cc4ccc(F)c(F)c4)C3=O)c[nH]c12 [Compound 8, (Z)-5-((6-chloro-7-methoxyl-1H-indol-3-yl)methylene)-3-(3,4-difluorobenzyl)imidazolidine-2,4-dione]",5.00 to 6.00,7.00 to 8.00,7.00 to 8.00
CSc1c(Cl)ccc2c(/C=C3\NC(=O)N(Cc4ccc(F)c(F)c4)C3=O)c[nH]c12 [Compound 9],< 5.00,7.00 to 8.00,7.00 to 8.00
"O=C1N/C(=C\c2c[nH]c3c(F)c(Cl)ccc23)C(=O)N1Cc1ccc(F)c(F)c1 [Compound 10, (Z)-5-((6-chloro-7-fluoro-1H-indol-3-yl)methylene)-3-(3,4-difluorobenzyl)imidazolidine-2,4-dione]",5.00 to 6.00,7.00 to 8.00,7.00 to 8.00
"N#Cc1ccc(CN2C(=O)N/C(=C\c3c[nH]c4c(OCF)c(Cl)ccc34)C2=O)cc1F [Compound 11, (Z)-4-((4-((6-chloro-7-(fluoromethoxyl)-1H-indol-3-yl)methylene)-2,5-dioxoimidazolidin-1-yl)methyl)-2-fluorobenzonitrile]",5.00 to 6.00,> 8.00,7.00 to 8.00
"O=C1N/C(=C\c2c[nH]c3c(OCF)c(Cl)ccc23)C(=O)N1Cc1ccc(Cl)cc1 [Compound 12, (Z)-5-((6-chloro-7-(fluoromethoxyl)-1H-indol-3-yl)methylene)-3-(4-chlorobenzyl)imidazolidine-2,4-dione]",< 5.00,7.00 to 8.00,7.00 to 8.00
"N#Cc1ccc(CN2C(=O)N/C(=C\c3c[nH]c4c(OCF)c(Cl)ccc34)C2=O)cc1 [Compound 13, (Z)-4-((4-((6-chloro-7-(fluoromethoxyl)-1H-indol-3-yl)methylene)-2,5-dioxoimidazolidin-1-yl)methyl)benzonitrile]",< 5.00,> 8.00,7.00 to 8.00
"N#Cc1ccc(CN2C(=O)N/C(=C\c3c[nH]c4c(F)c(Cl)ccc34)C2=O)cc1F [Compound 14, (Z)-4-((4-((6-chloro-7-fluoro-1H-indol-3-yl)methylene)-2,5-dioxoimidazolidin-1-yl)methyl)-2-fluorobenzonitrile]",≥ 6.00,> 8.00,> 8.00
"O=C1N/C(=C\c2c[nH]c3c(F)c(Cl)ccc23)C(=O)N1Cc1ccc(Cl)cc1 [Compound 15, (Z)-5-((6-chloro-7-fluoro-1H-indol-3-yl)methylene)-3-(4-chlorobenzyl)imidazolidine-2,4-dione]",≥ 6.00,7.00 to 8.00,7.00 to 8.00
"N#Cc1ccc(CN2C(=O)N/C(=C\c3c[nH]c4c(F)c(Cl)ccc34)C2=O)cc1 [Compound 16, (Z)-4-((4-((6-chloro-7-fluoro-1H-indol-3-yl)methylene)-2,5-dioxoimidazolidin-1-yl)methyl)benzonitrile]",≥ 6.00,> 8.00,> 8.00
"O=C(NC(CO)CO)C(c1ccc(Cl)cc1)N1C(=O)N/C(=C\c2c[nH]c3cc(Cl)ccc23)C1=O (stereo not shown) [Compound 22, (Z)-2-(4-((6-chloro-1H-indol-3-yl)methylene)-2,5-dioxoimidazolidin-1-yl)-2-(4-chlorophenyl)-N-(1,3-dihydroxypropan-2-yl)acetamide]",–,> 8.00,7.00 to 8.00
"CCN(CC)CCNC(=O)C(c1ccc(Cl)cc1)N1C(=O)N/C(=C\c2c[nH]c3cc(Cl)ccc23)C1=O (stereo not shown) [Compound 23, (Z)-2-(4-((6-chloro-1H-indol-3-yl)methylene)-2,5-dioxoimidazolidin-1-yl)-2-(4-chlorophenyl)-N-(2-(diethylamino)ethyl)acetamide]",–,7.00 to 8.00,7.00 to 8.00
"COc1c(Cl)ccc2c(/C=C3\NC(=O)N(C(C)c4ccc(F)c(F)c4)C3=O)c[nH]c12 (stereo not shown) [Compound 25, (Z)-5-((6-chloro-7-methoxyl-1H-indol-3-yl)methylene)-3-(1-(3,4-difluorophenyl)ethyl)imidazolidine-2,4-dione]",–,7.00 to 8.00,7.00 to 8.00
"Cc1c(Cl)ccc2c(/C=C3\NC(=O)N(C(CO)c4ccc(F)c(F)c4)C3=O)c[nH]c12 (stereo not shown) [Compound 39, (Z)-5-((6-chloro-7-methyl-1H-indol-3-yl)methylene)-3-(1-(3,4-difluorophenyl)-2-hydroxyethyl)imidazolidine-2,4-dione]",5.00 to 6.00,–,–
"Cc1c(Cl)ccc2c(/C=C3\NC(=O)N(C(COP(=O)(O)O)c4ccc(F)c(F)c4)C3=O)c[nH]c12 (stereo not shown) [Compound 43, (Z)-2-(4-((6-chloro-7-methyl-1H-indol-3-yl)methylene)-2,5-dioxoimidazolidin-1-yl)-2-(3,4-difluorophenyl)ethyl dihydrophosphate]",–,7.00 to 8.00,7.00 to 8.00
"Cc1c(Cl)ccc2c(/C=C3\NC(=O)N(C(C(=O)NCCOP(=O)(O)O)c4ccc(F)c(F)c4)C3=O)c[nH]c12 (stereo not shown) [Compound 44, (Z)-2-(2-(4-((6-chloro-7-methyl-1H-indol-3-yl)methylene)-2,5-dioxoimidazolidin-1-yl)-2-(3,4-difluorophenyl)acetamido)dihydroethyl phosphate]",–,> 8.00,> 8.00
"Cc1c(Cl)ccc2c(/C=C3\NC(=O)N(C(C(=O)NC(COP(=O)(O)O)COP(=O)(O)O)c4ccc(F)c(F)c4)C3=O)c[nH]c12 (stereo not shown) [Compound 74, (Z)-2-(2-(4-((6-chloro-7-methyl-1H-indol-3-yl)methylene)-2,5-dioxoimidazolidin-1-yl)-2-(3,4-difluorophenyl)acetamido)propane-1,3-diylbis(dihydrophosphate)]",–,< 7.00,7.00 to 8.00
"Cc1c(Cl)ccc2c(/C=C3\NC(=O)N(C(COP(=O)(O)O)c4ccc(C#N)cc4)C3=O)c[nH]c12 (stereo not shown) [Compound 92, (Z)-2-(4-((6-chloro-7-methyl-1H-indol-3-yl)methylene)-2,5-dioxoimidazolidin-1-yl)-2-(4-cyanophenyl)ethyl dihydrophosphate]",–,7.00 to 8.00,7.00 to 8.00
"O=C1N/C(=C\c2c[nH]c3cc(Cl)ccc23)C(=O)N1[C@H](COP(=O)(O)O)c1ccc(F)c(F)c1 [Compound 94, (S,Z)-2-(4-((6-chloro-1H-indol-3-yl)methylene)-2,5-dioxoimidazolidin-1-yl)-2-(3,4-difluorophenyl)dihydroethyl phosphate]",–,> 8.00,> 8.00
"O=C1N/C(=C\c2c[nH]c3cc(Cl)ccc23)C(=O)N1[C@@H](COP(=O)(O)O)c1ccc(F)c(F)c1 [Compound 95, (R,Z)-2-(4-((6-chloro-1H-indol-3-yl)methylene)-2,5-dioxoimidazolidin-1-yl)-2-(3,4-difluorophenyl)dihydroethyl phosphate]",–,7.00 to 8.00,7.00 to 8.00
"O=C1N/C(=C\c2c[nH]c3c(F)c(Cl)ccc23)C(=O)N1C(CCO)c1ccc(Cl)cc1 (stereo not shown) [Compound 108, (Z)-5-((6-chloro-7-fluoro-1H-indol-3-yl)methylene)-3-(1-(4-chlorophenyl)-3-hydroxypropyl)imidazolidine-2,4-dione]",≥ 6.00,–,–
"O=C1N/C(=C\c2c[nH]c3c(F)c(Cl)ccc23)C(=O)N1C(CCCO)c1ccc(Cl)cc1 (stereo not shown) [Compound 109, (Z)-5-((6-chloro-7-fluoro-1H-indol-3-yl)methylene)-3-(1-(4-chlorophenyl)-4-hydroxybutyl)imidazolidine-2,4-dione]",≥ 6.00,–,–
